Reference: patent publication US4314028A, “Fermentation process for producing tallysomycin compounds” (priority 1980, dated 1982)
Read-outs that look alike come from different tables or passages of the source.

Key:
[1] = system: Lymphocytic leukemia P388; test: animal or person; assay type: in vivo, BDF1 mice; settings: for Antitumor activity P388 (ED125): ip, once daily 9 days, dose giving T/C survival of 125%; for Antitumor activity P388 (ED125) / Antitumor therapeutic index P388: copper-chelated form unless otherwise stated; for Antitumor therapeutic index P388: single dose LD50/ED125
Method in brief: (§1)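 P388 (3×10^5 cells) and Lewis lung (5×10^5) i.p. in BDF1 mice, B16 (5×10^5) s.c. in BDF1, Sarcoma 180 ([…]) i.p. in male dd mice. ED125 (Sarcoma 180 ED150) from median-survival T/C, 45 days; B16 ID50 from day-16 tumor size.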

[2] = system: Sarcoma 180; test: animal or person; assay type: in vivo, dd-strain mice; settings: for ED (T/C 150%): Mus musculus, 216 h, read-out: Antitumor activity S180 (ED150); for ED (T/C 150%) / Antitumor activity S180 (ED150): ip; for Antitumor therapeutic index S180: single dose LD50/ED150
Method in brief: as §1

[3] = system: Lewis lung carcinoma; test: Antitumor activity in mice, Lewis lung carcinoma; assay type: in vivo, BDF1 mice; settings: for Antitumor activity Lewis lung (ED125): once daily 11 days, dose giving T/C survival of 125%; for Antitumor activity Lewis lung (ED125) / Antitumor therapeutic index Lewis Lung: copper-chelated form unless otherwise stated; for Antitumor therapeutic index Lewis Lung: single dose LD50/ED125
Description: The antitumor activity of the tallysomycin derivatives was examined in four experimental tumor systems in mice. Lymphocytic leukemia P388 and Lewis lung carcinoma were implanted intraperitoneally into BDF1 mice of either sex at an inoculum size of 3×10^5 and 5×10^5 cells per mouse, respectively. Sarcoma 180 ascites tumor was inoculated intraperitoneally into male dd-strain mice with […] per mouse. Melanotic melanoma B16 was implanted subcutaneously into BDF1 mice with 5×10^5 cells per mouse. Twenty-four hours after the implantation of tumor cells, graded doses of test compounds were administered to mice intraperitoneally in an injection volume of 0.2 ml. per 10 grams of body weight. Test compounds were given once daily for 9 days (qd 1→9 schedule) except for the mice inoculated with Lewis lung carcinoma which were treated for 11 days (qd 1→11). Death or survival of the treated and non-treated (control) animals was recorded daily during the observation period of 45 days after the implantation of tumor cells, and the median survival time was calculated for each of the test (T) and control (C) groups. […] The actual dose giving a T/C of 125% was estimated by linear regression analysis and defined as the effective dose 125 or ED125. The effective dose 150 (ED150) was employed for the evaluation of antitumor effect against Sarcoma 180. In the B16 melanoma experiment the tumor size was measured on day 16 after tumor inoculation, and the dose giving 50% inhibition of tumor growth (ID50) was calculated from regression lines.
The antitumor therapeutic index was calculated for each derivative from the ratio of toxicity and antitumor activity.

[4] = Acute toxicity, single dose LD50; assay type: in vivo, dd mice; settings: ip, 30 days observation, copper-chelated form unless otherwise stated
Procedure: (§2) Graded doses of test compounds were administered intraperitoneally to groups of dd mice. The injection was given one time only or once daily for 9 consecutive days. Death or survival of the animals was recorded for 30 days after the last dose of test compound to calculate the single or multiple median lethal dose (LD50).

[5] = Subacute toxicity, multiple dose LD50; assay type: in vivo, dd mice; settings: ip, once daily 9 days, 30 days observation; copper-chelated form unless otherwise stated
Procedure: as §2

[6] = system: Aspergillus fumigatus IAM 2593; test: MIC, two-fold agar dilution method; assay type: cell-based; settings: Sabouraud agar
Method in brief: (§3)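 MICs were determined by serial two-fold dilution in agar. The bacterial strains (S. aureus Smith, Mycobacterium 607, Sarcina lutea PCI1001) were grown on nutrient agar, and Aspergillus fumigatus IAM 2593 on Sabouraud agar.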

[7] = system: Bacillus subtilis PCI 219; test: MIC, two-fold agar dilution method; assay type: cell-based; settings: nutrient agar
Method in brief: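 Agar dilution (2-fold series) on nutrient agar (bacteria) or Sabouraud agar (fungi).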

[8] = system: Candida albicans IAM 4888; test: MIC, two-fold agar dilution method; assay type: cell-based; settings: Sabouraud agar
Method in brief: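 Compounds are diluted two-fold through agar plates: Sabouraud medium for the fungus, nutrient medium for the bacterial strains, including the acid-fast Mycobacterium 607. Organisms are then applied and the minimum inhibitory concentration is recorded.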

[9] = system: Escherichia coli NIHJ; test: MIC, two-fold agar dilution method; assay type: cell-based; settings: nutrient agar
Method in brief: (§4)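 Two-fold agar dilution; nutrient agar for bacteria, Sabouraud agar for A. fumigatus. MIC = lowest inhibitory concentration.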

[10] = system: Mycobacterium 607; test: MIC, two-fold agar dilution method; assay type: cell-based; settings: nutrient agar
Method in brief: as §3

[11] = system: Proteus mirabilis A9554; test: MIC, two-fold agar dilution method; assay type: cell-based; settings: nutrient agar
Method in brief: as §4

[12] = system: Sarcina lutea PCI1001; test: MIC, two-fold agar dilution method; assay type: cell-based; settings: nutrient agar
Method in brief: as §3

[13] = system: Staphylococcus aureus Smith; test: MIC, two-fold agar dilution method; assay type: cell-based; settings: nutrient agar
Method in brief: as §3

[14] = system: Mycobacterium smegmatis strain M6-3; test: Relative antibacterial potency, paper-disc agar diffusion method; assay type: cell-based; settings: relative to tallysomycin A standard=1000 mcg/mg
Procedure: The relative antibacterial potencies (tallysomycin A standard=1000 mcg/mg) of the tallysomycin derivatives were determined by the paper-disc agar diffusion method using Mycobacterium smegmatis strain M6-3 as the assay organism.

[15] = system: lysogenic bacterium E. coli W1709 (λ); test: Prophage induction of lysogenic bacterium (ILB activity); assay type: cell-based; settings: t/c ratio of plaque counts greater than 3.0
Method in brief: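 Plaques counted on agar plates containing test compound and on control plates, following Lein et al. A test/control plaque ratio above 3.0 counted as significant. Value given as the minimum inducible concentration.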

[16] = system: Melanotic melanoma B16; test: Antitumor activity in mice, melanotic melanoma B16; assay type: in vivo, BDF1 mice; settings: copper-chelated form unless otherwise stated; for Antitumor activity B16 (ID50): ip, once daily 9 days, 50% inhibition of tumor growth, day 16, 23040 min; for Antitumor therapeutic index B16: single dose LD50/ID50
Method in brief: as §1

[17] = once daily 9 days, effective dose 150, survival, copper-chelated form unless otherwise stated
[18] = copper-chelated form unless otherwise stated

Row | SMILES | Antitumor activity P388 (ED125) [1] [mg/kg/day] | Antitumor activity Lewis lung (ED125) ([3]; ip) [mg/kg/day] | LD50 single dose [4] [mg/kg/day] | LD50 multiple dose (qd 1 → 9) [5] [mg/kg/day] | minimum inhibitory concentration (MIC) [6] | minimum inhibitory concentration (MIC) [7] | minimum inhibitory concentration (MIC) [8] | minimum inhibitory concentration (MIC) [9] | minimum inhibitory concentration (MIC) [10] | minimum inhibitory concentration (MIC) [11] | minimum inhibitory concentration (MIC) [12] | minimum inhibitory concentration (MIC) [13] | Antibacterial potency [14] | ILB activity (minimum inducible concentration) [15] [µg/mL] | Antitumor therapeutic index P388 [1] | Antitumor activity S180 (ED150) [2, 17] [mg/kg/day] | Antitumor therapeutic index S180 [2, 18] | Antitumor activity B16 (ID50) [16] [mg/kg/day] | Antitumor therapeutic index B16 [16] | Antitumor therapeutic index Lewis Lung [3] | other results
1 | Cc1c(N)nc(C(CC(N)=O)NCC(N)C(N)=O)nc1C(=O)NC(C(=O)NC(C)C(O)CC(=O)NC(C(=O)NC(OC1OC(C)C(N)C(O)C1O)C(O)c1nc(-c2nc(C(=O)NCCCC(N)CC(=O)NCCCNCCCCN)cs2)cs1)C(C)O)C(OC1OC(CO)C(O)C(O)C1OC1OC(CO)C(O)C(OC(N)=O)C1O)c1c[nH]cn1 (stereo not drawn) [Tallysomycin A (Cu-free), reference compound] | 0.26 | 0.13 | 19 | 4.4 | – | – | – | – | – | – | – | – | – | – | – | – | – | – | – | – | ED (T/C 150%) [2, 17]: 0.07 mg/kg/day
2 | Cc1c(N)nc(C(CC(N)=O)NCC(N)C(N)=O)nc1C(=O)NC(C(=O)NC(C)C(O)CC(=O)NC(C(=O)NC(OC1OC(C)C(N)C(O)C1O)C(O)c1nc(-c2nc(C(=O)NCCCNCCCCN)cs2)cs1)C(C)O)C(OC1OC(CO)C(O)C(O)C1OC1OC(CO)C(O)C(OC(N)=O)C1O)c1c[nH]cn1 (stereo not drawn) [Tallysomycin B (Cu-free), reference compound] | 0.89 | 0.11 | 46 | 6.8 | – | – | – | – | – | – | – | – | – | – | – | – | – | – | – | – | ED (T/C 150%) [2, 17]: 0.06 mg/kg/day
3 | Cc1c(N)nc(C(CC(N)=O)NCC(N)C(N)=O)nc1C(=O)NC(C(=O)NC(C)C(O)CC(=O)NC(C(=O)NC(OC1OC(C)C(N)C(O)C1O)C(O)c1nc(-c2nc(C(=O)NCCCN(CCO)CCO)cs2)cs1)C(C)O)C(OC1OC(CO)C(O)C(O)C1OC1OC(CO)C(O)C(OC(N)=O)C1O)c1c[nH]cn1 (stereo not drawn) [Tallysomycin S8b] | 1.5 | 0.12 | 30 | – | 1.6 | 0.013 | > 50 | 0.2 | 0.1 | 0.8 | 0.8 | 0.4 | 370 μ/mg | 0.02 | 20 | 0.25 | 120 | 0.26 | 115 | 250 | –
4 | Cc1c(N)nc(C(CC(N)=O)NCC(N)C(N)=O)nc1C(=O)NC(C(=O)NC(C)C(O)CC(=O)NC(C(=O)NC(OC1OC(C)C(N)C(O)C1O)C(O)c1nc(-c2nc(C(=O)NCCNCCO)cs2)cs1)C(C)O)C(OC1OC(CO)C(O)C(O)C1OC1OC(CO)C(O)C(OC(N)=O)C1O)c1c[nH]cn1 (stereo not drawn) [Tallysomycin S9b] | > 3.0 | 0.41 | 32 | – | 1.6 | 0.013 | 25 | 0.1 | 0.1 | 0.8 | 0.8 | 0.4 | 380 μ/mg | 0.16 | < 11 | 0.42 | 76 | 0.29 | 110 | 78 | –
5 | Cc1c(N)nc(C(CC(N)=O)NCC(N)C(N)=O)nc1C(=O)NC(C(=O)NC(C)C(O)CC(=O)NC(C(=O)NC(OC1OC(C)C(N)C(O)C1O)C(O)c1nc(-c2nc(C(=O)NCCCCN)cs2)cs1)C(C)O)C(OC1OC(CO)C(O)C(O)C1OC1OC(CO)C(O)C(OC(N)=O)C1O)c1c[nH]cn1 (stereo not drawn) [Tallysomycin S10b (Cu-free)] | – | – | 42 | 4.0 | – | – | – | – | – | – | – | – | – | – | – | – | – | – | – | – | ED (T/C 125%) ([1]; Mus musculus, P388, ip, 216 h, read-out: Antitumor activity P388 (ED125)): 0.47 mg/kg/day; ED (T/C 150%) [2]: 0.02 mg/kg/day; ED (T/C 125%) ([3]; Mus musculus, Lewis lung carcinoma, ip, 264 h, read-out: Antitumor activity Lewis lung (ED125)): 0.21 mg/kg/day
6 | CNCCCNC(=O)c1csc(-c2csc(C(O)C(NC(=O)C(NC(=O)CC(O)C(C)NC(=O)C(NC(=O)c3nc(C(CC(N)=O)NCC(N)C(N)=O)nc(N)c3C)C(OC3OC(CO)C(O)C(O)C3OC3OC(CO)C(O)C(OC(N)=O)C3O)c3c[nH]cn3)C(C)O)OC3OC(C)C(N)C(O)C3O)n2)n1 (stereo not drawn) [Tallysomycin S11b] | 0.28 | 0.32 | 21 | – | 6.3 | 0.1 | 12.5 | 0.2 | 0.1 | 1.6 | 0.8 | 3.1 | 450 μ/mg | 0.63 | 75 | 0.20 | 105 | 0.70 | 30 | 66 | –
7 | Cc1c(N)nc(C(CC(N)=O)NCC(N)C(N)=O)nc1C(=O)NC(C(=O)NC(C)C(O)CC(=O)NC(C(=O)NC(OC1OC(C)C(N)C(O)C1O)C(O)c1nc(-c2nc(C(=O)NCCCNC(C)c3ccccc3)cs2)cs1)C(C)O)C(OC1OC(CO)C(O)C(O)C1OC1OC(CO)C(O)C(OC(N)=O)C1O)c1c[nH]cn1 (stereo not drawn) [Tallysomycin S14b] | 3.0 | 0.29 | – | 16 | 25 | 0.4 | > 100 | 0.4 | 0.2 | 25 | 3.1 | 3.1 | 1,090 μ/mg | 0.04 | – | 0.08 | – | 0.43 | – | – | –
